According to the supplement of paper PMC10307832:

Columns and labels:
Assay in all cases: relative viability (nuclei count vs DMSO), 5 days (fraction); higher = more cells survive
IDH-C35 + Pictilisib = compound: Cc1ccccc1C(C(=O)NC1CCCCC1)N(C(=O)Cn1ccnc1C)c1cccc(F)c1 [IDH-C35] + CS(=O)(=O)N1CCN(Cc2cc3nc(-c4cccc5[nH]ncc45)nc(N4CCOCC4)c3s2)CC1 [Pictilisib] (partner 1 µM)
Outline: (§1)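 Lung cancer cell lines were pin-tool dosed in 1536-well plates on the day after seeding, with either a lone drug or a fixed anchor-drug dose plus five library-drug doses (not always all listed) in √10 steps. Nuclei were counted on 4× images after 5 days. Relative viability is the ratio of treated-well to vehicle-well nuclei counts, with each value a median of duplicate plates.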

IDH-C35 + Vorinostat = compound: Cc1ccccc1C(C(=O)NC1CCCCC1)N(C(=O)Cn1ccnc1C)c1cccc(F)c1 [IDH-C35] + O=C(CCCCCCC(=O)Nc1ccccc1)NO [Vorinostat] (partner 1 µM)
Outline: as §1

IDH-C35 + Trametinib = compound: Cc1ccccc1C(C(=O)NC1CCCCC1)N(C(=O)Cn1ccnc1C)c1cccc(F)c1 [IDH-C35] + CC(=O)Nc1cccc(-n2c(=O)n(C3CC3)c(=O)c3c(Nc4ccc(I)cc4F)n(C)c(=O)c(C)c32)c1 [Trametinib] (partner 0.02 µM)
Outline: as §1

[1] = compound: CC1=C(C(=NN1)C)CC2=C(C3=C(S2)N(C(=O)N(C3=O)C)CC(C)C)C(=O)N4C[C@@H](CO4)O + N=C(N)NC(=N)NCCc1ccccc1 [Phenformin] (partner 250 µM)
Outline: as §1

HOP-62
relative viability (IDH-C35 + Pictilisib; first compound 0.08 µM): 0.509 | relative viability (IDH-C35 + Pictilisib; first compound 0.253 µM): 0.744 | relative viability (IDH-C35 + Pictilisib; first compound 0.8 µM): 0.537 | relative viability (IDH-C35 + Pictilisib; first compound 8 µM): 0.581 | relative viability (IDH-C35 + Vorinostat; first compound 0.08 µM): 0.532 | relative viability (IDH-C35 + Vorinostat; first compound 0.253 µM): 0.708 | relative viability (IDH-C35 + Vorinostat; first compound 0.8 µM): 0.669 | relative viability (IDH-C35 + Vorinostat; first compound 2.53 µM): 0.434 | relative viability (IDH-C35 + Vorinostat; first compound 8 µM): 0.628 | relative viability (IDH-C35 + Trametinib; first compound 0.08 µM): 0.395 | relative viability (IDH-C35 + Trametinib; first compound 0.253 µM): 0.353 | relative viability (IDH-C35 + Trametinib; first compound 0.8 µM): 0.424 | relative viability (IDH-C35 + Trametinib; first compound 2.53 µM): 0.33 | relative viability (IDH-C35 + Trametinib; first compound 8 µM): 0.384 | relative viability ([1]; first compound 0.0025 µM): 0.649 | relative viability ([1]; first compound 0.007906 µM): 0.564 | relative viability ([1]; first compound 0.025 µM): 0.656 | relative viability ([1]; first compound 0.07906 µM): 0.624 | relative viability ([1]; first compound 0.25 µM): 0.861

LC-2-ad
relative viability (IDH-C35 + Pictilisib; first compound 0.08 µM): 0.595 | relative viability (IDH-C35 + Pictilisib; first compound 0.253 µM): 0.472 | relative viability (IDH-C35 + Pictilisib; first compound 0.8 µM): 0.439 | relative viability (IDH-C35 + Pictilisib; first compound 2.53 µM): 0.441 | relative viability (IDH-C35 + Pictilisib; first compound 8 µM): 0.455 | relative viability (IDH-C35 + Vorinostat; first compound 0.08 µM): 0.694 | relative viability (IDH-C35 + Vorinostat; first compound 0.253 µM): 0.701 | relative viability (IDH-C35 + Vorinostat; first compound 0.8 µM): 0.67 | relative viability (IDH-C35 + Vorinostat; first compound 2.53 µM): 0.632 | relative viability (IDH-C35 + Vorinostat; first compound 8 µM): 0.677 | relative viability (IDH-C35 + Trametinib; first compound 0.08 µM): 0.87 | relative viability (IDH-C35 + Trametinib; first compound 0.253 µM): 0.923 | relative viability (IDH-C35 + Trametinib; first compound 0.8 µM): 0.954 | relative viability (IDH-C35 + Trametinib; first compound 2.53 µM): 0.874 | relative viability (IDH-C35 + Trametinib; first compound 8 µM): 0.905 | relative viability ([1]; first compound 0.0025 µM): 0.604 | relative viability ([1]; first compound 0.007906 µM): 0.59 | relative viability ([1]; first compound 0.025 µM): 0.528 | relative viability ([1]; first compound 0.07906 µM): 0.573 | relative viability ([1]; first compound 0.25 µM): 0.648

LCLC-97TM1
relative viability (IDH-C35 + Pictilisib; first compound 0.08 µM): 0.17 | relative viability (IDH-C35 + Pictilisib; first compound 0.253 µM): 0.168 | relative viability (IDH-C35 + Pictilisib; first compound 0.8 µM): 0.192 | relative viability (IDH-C35 + Pictilisib; first compound 8 µM): 0.192 | relative viability (IDH-C35 + Vorinostat; first compound 0.08 µM): 0.706 | relative viability (IDH-C35 + Vorinostat; first compound 0.253 µM): 0.729 | relative viability (IDH-C35 + Vorinostat; first compound 0.8 µM): 0.67 | relative viability (IDH-C35 + Vorinostat; first compound 8 µM): 0.436 | relative viability (IDH-C35 + Trametinib; first compound 0.08 µM): 0.183 | relative viability (IDH-C35 + Trametinib; first compound 0.253 µM): 0.2 | relative viability (IDH-C35 + Trametinib; first compound 0.8 µM): 0.21 | relative viability (IDH-C35 + Trametinib; first compound 8 µM): 0.243 | relative viability ([1]; first compound 0.0025 µM): 0.483 | relative viability ([1]; first compound 0.007906 µM): 0.432 | relative viability ([1]; first compound 0.025 µM): 0.429 | relative viability ([1]; first compound 0.07906 µM): 0.477 | relative viability ([1]; first compound 0.25 µM): 0.51

LCLC-103H
relative viability (IDH-C35 + Pictilisib; first compound 0.08 µM): 0.7 | relative viability (IDH-C35 + Pictilisib; first compound 0.253 µM): 0.62 | relative viability (IDH-C35 + Pictilisib; first compound 0.8 µM): 0.536 | relative viability (IDH-C35 + Pictilisib; first compound 2.53 µM): 0.715 | relative viability (IDH-C35 + Pictilisib; first compound 8 µM): 0.603 | relative viability (IDH-C35 + Vorinostat; first compound 0.08 µM): 0.782 | relative viability (IDH-C35 + Vorinostat; first compound 0.253 µM): 0.755 | relative viability (IDH-C35 + Vorinostat; first compound 0.8 µM): 0.87 | relative viability (IDH-C35 + Vorinostat; first compound 2.53 µM): 0.591 | relative viability (IDH-C35 + Vorinostat; first compound 8 µM): 0.625 | relative viability (IDH-C35 + Trametinib; first compound 0.08 µM): 0.704 | relative viability (IDH-C35 + Trametinib; first compound 0.253 µM): 0.672 | relative viability (IDH-C35 + Trametinib; first compound 0.8 µM): 0.727 | relative viability (IDH-C35 + Trametinib; first compound 2.53 µM): 0.656 | relative viability (IDH-C35 + Trametinib; first compound 8 µM): 0.7 | relative viability ([1]; first compound 0.0025 µM): 0.329 | relative viability ([1]; first compound 0.007906 µM): 0.367 | relative viability ([1]; first compound 0.025 µM): 0.393 | relative viability ([1]; first compound 0.07906 µM): 0.341 | relative viability ([1]; first compound 0.25 µM): 0.317

LK-2
relative viability (IDH-C35 + Pictilisib; first compound 0.08 µM): 0.584 | relative viability (IDH-C35 + Pictilisib; first compound 0.253 µM): 0.501 | relative viability (IDH-C35 + Pictilisib; first compound 0.8 µM): 0.456 | relative viability (IDH-C35 + Pictilisib; first compound 2.53 µM): 0.496 | relative viability (IDH-C35 + Pictilisib; first compound 8 µM): 0.565 | relative viability (IDH-C35 + Vorinostat; first compound 0.08 µM): 0.352 | relative viability (IDH-C35 + Vorinostat; first compound 0.253 µM): 0.273 | relative viability (IDH-C35 + Vorinostat; first compound 0.8 µM): 0.216 | relative viability (IDH-C35 + Vorinostat; first compound 2.53 µM): 0.34 | relative viability (IDH-C35 + Vorinostat; first compound 8 µM): 0.165 | relative viability (IDH-C35 + Trametinib; first compound 0.08 µM): 0.719 | relative viability (IDH-C35 + Trametinib; first compound 0.253 µM): 0.762 | relative viability (IDH-C35 + Trametinib; first compound 0.8 µM): 0.735 | relative viability (IDH-C35 + Trametinib; first compound 2.53 µM): 0.779 | relative viability (IDH-C35 + Trametinib; first compound 8 µM): 0.745 | relative viability ([1]; first compound 0.0025 µM): 0.304 | relative viability ([1]; first compound 0.007906 µM): 0.321 | relative viability ([1]; first compound 0.025 µM): 0.195 | relative viability ([1]; first compound 0.07906 µM): 0.187 | relative viability ([1]; first compound 0.25 µM): 0.263

LOU-NH91
relative viability (IDH-C35 + Pictilisib; first compound 0.08 µM): 0.528 | relative viability (IDH-C35 + Pictilisib; first compound 0.253 µM): 0.548 | relative viability (IDH-C35 + Pictilisib; first compound 0.8 µM): 0.516 | relative viability (IDH-C35 + Pictilisib; first compound 2.53 µM): 0.496 | relative viability (IDH-C35 + Pictilisib; first compound 8 µM): 0.531 | relative viability (IDH-C35 + Vorinostat; first compound 0.08 µM): 0.916 | relative viability (IDH-C35 + Vorinostat; first compound 0.253 µM): 0.946 | relative viability (IDH-C35 + Vorinostat; first compound 0.8 µM): 0.894 | relative viability (IDH-C35 + Vorinostat; first compound 2.53 µM): 0.8 | relative viability (IDH-C35 + Vorinostat; first compound 8 µM): 0.888 | relative viability (IDH-C35 + Trametinib; first compound 0.08 µM): 0.804 | relative viability (IDH-C35 + Trametinib; first compound 0.253 µM): 0.785 | relative viability (IDH-C35 + Trametinib; first compound 0.8 µM): 0.781 | relative viability (IDH-C35 + Trametinib; first compound 2.53 µM): 0.742 | relative viability (IDH-C35 + Trametinib; first compound 8 µM): 0.803 | relative viability ([1]; first compound 0.0025 µM): 0.763 | relative viability ([1]; first compound 0.007906 µM): 0.752 | relative viability ([1]; first compound 0.025 µM): 0.731 | relative viability ([1]; first compound 0.07906 µM): 0.844 | relative viability ([1]; first compound 0.25 µM): 0.733

LU99A
relative viability (IDH-C35 + Pictilisib; first compound 0.08 µM): 0.337 | relative viability (IDH-C35 + Pictilisib; first compound 0.253 µM): 0.299 | relative viability (IDH-C35 + Pictilisib; first compound 0.8 µM): 0.326 | relative viability (IDH-C35 + Pictilisib; first compound 2.53 µM): 0.317 | relative viability (IDH-C35 + Pictilisib; first compound 8 µM): 0.361 | relative viability (IDH-C35 + Vorinostat; first compound 0.08 µM): 0.533 | relative viability (IDH-C35 + Vorinostat; first compound 0.253 µM): 0.422 | relative viability (IDH-C35 + Vorinostat; first compound 0.8 µM): 0.483 | relative viability (IDH-C35 + Vorinostat; first compound 2.53 µM): 0.481 | relative viability (IDH-C35 + Vorinostat; first compound 8 µM): 0.505 | relative viability (IDH-C35 + Trametinib; first compound 0.08 µM): 0.527 | relative viability (IDH-C35 + Trametinib; first compound 0.253 µM): 0.643 | relative viability (IDH-C35 + Trametinib; first compound 0.8 µM): 0.56 | relative viability (IDH-C35 + Trametinib; first compound 2.53 µM): 0.527 | relative viability (IDH-C35 + Trametinib; first compound 8 µM): 0.524 | relative viability ([1]; first compound 0.0025 µM): 0.84 | relative viability ([1]; first compound 0.007906 µM): 1.06 | relative viability ([1]; first compound 0.025 µM): 0.798 | relative viability ([1]; first compound 0.07906 µM): 0.898 | relative viability ([1]; first compound 0.25 µM): 0.927

LXF-289
relative viability (IDH-C35 + Pictilisib; first compound 0.08 µM): 0.813 | relative viability (IDH-C35 + Pictilisib; first compound 0.253 µM): 0.767 | relative viability (IDH-C35 + Pictilisib; first compound 0.8 µM): 0.689 | relative viability (IDH-C35 + Pictilisib; first compound 2.53 µM): 0.85 | relative viability (IDH-C35 + Pictilisib; first compound 8 µM): 0.725 | relative viability (IDH-C35 + Vorinostat; first compound 0.08 µM): 0.768 | relative viability (IDH-C35 + Vorinostat; first compound 0.253 µM): 0.787 | relative viability (IDH-C35 + Vorinostat; first compound 0.8 µM): 0.86 | relative viability (IDH-C35 + Vorinostat; first compound 2.53 µM): 0.62 | relative viability (IDH-C35 + Vorinostat; first compound 8 µM): 0.799 | relative viability (IDH-C35 + Trametinib; first compound 0.08 µM): 0.701 | relative viability (IDH-C35 + Trametinib; first compound 0.253 µM): 0.628 | relative viability (IDH-C35 + Trametinib; first compound 0.8 µM): 0.643 | relative viability (IDH-C35 + Trametinib; first compound 2.53 µM): 0.676 | relative viability (IDH-C35 + Trametinib; first compound 8 µM): 0.668 | relative viability ([1]; first compound 0.0025 µM): 0.525 | relative viability ([1]; first compound 0.007906 µM): 0.52 | relative viability ([1]; first compound 0.025 µM): 0.532 | relative viability ([1]; first compound 0.07906 µM): 0.537 | relative viability ([1]; first compound 0.25 µM): 0.556
